In patent US7951815B2, “Substituted 1,4,8-triazaspiro [4,5]decan-2-one compounds” (Gruenenthal GmbH, priority 2004, dated 2011):

Biological target: T1, 5-HT transporter (Rattus norvegicus, UniProt P31652)
T1 construct: synaptosomes of rat brain areas are freshly isolated; from tissue; host or cells: rat brain synaptosomes (P2 fraction) from marrow and pons
Experiment: Inhibition of 5-HT uptake in rat brain synaptosomes
Format: biochemical
Conditions: Table III; rat, 1 μM

T1 sequence (P31652 whole entry): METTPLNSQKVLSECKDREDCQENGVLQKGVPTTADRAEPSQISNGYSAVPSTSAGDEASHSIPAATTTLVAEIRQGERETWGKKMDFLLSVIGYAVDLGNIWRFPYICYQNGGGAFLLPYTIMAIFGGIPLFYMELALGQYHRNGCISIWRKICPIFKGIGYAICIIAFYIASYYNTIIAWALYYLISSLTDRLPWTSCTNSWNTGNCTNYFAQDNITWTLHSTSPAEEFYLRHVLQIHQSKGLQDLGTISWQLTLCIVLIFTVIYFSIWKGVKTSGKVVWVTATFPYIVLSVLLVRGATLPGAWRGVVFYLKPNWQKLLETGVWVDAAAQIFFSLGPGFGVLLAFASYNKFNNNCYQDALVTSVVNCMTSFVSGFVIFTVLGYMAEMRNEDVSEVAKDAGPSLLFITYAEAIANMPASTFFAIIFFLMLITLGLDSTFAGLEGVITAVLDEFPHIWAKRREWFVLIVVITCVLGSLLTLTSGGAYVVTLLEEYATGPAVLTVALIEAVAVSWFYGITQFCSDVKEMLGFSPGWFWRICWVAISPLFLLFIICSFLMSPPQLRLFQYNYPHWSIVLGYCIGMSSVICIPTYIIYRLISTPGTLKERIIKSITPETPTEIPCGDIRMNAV

Row | SMILES | Uptake 5-HT, rat, 1 μM, % inhibition [%]
1 | CC(=O)Nc1ccc(C(=O)N2CCC3(CC2)NC(CC(C)C)C(=O)N3CCCCOC(C)=O)cc1 (stereo not shown) [Example 255, Butyl 4-[8-(4-acetylaminobenzoyl)-3-isobutyl-2-oxo-1,4,8-triazaspiro[4,5]dec-1-yl]acetate] | 44
2 | C=CCN1C(=O)C(CCSC)NC12CCN(C(=O)c1ccc(S(N)(=O)=O)cc1)CC2 (stereo not shown) [Example 259, 4-[1-Allyl-3-(2-methylsulfanylethyl)-2-oxo-1,4,8-triazaspiro[4,5]decan-8-carbonyl]benzolsulfonamide] | 50
3 | CC(=O)OC(C(=O)N1CCC2(CC1)NCC(=O)N2Cc1cccc(C#N)c1)c1ccccc1 (stereo not shown) [Example 284, Ethyl 2-[1-(3-cyanobenzyl)-2-oxo-1,4,8-triazaspiro[4,5]dec-8-yl]-2-oxo-1-phenylacetate] | 51
4 | CCOc1ccccc1C(=O)N1CCC2(CC1)NC(CC(C)C)C(=O)N2CCCCOC(C)=O (stereo not shown) [Example 310, Butyl 4-[8-(2-ethoxybenzoyl)-3-isobutyl-2-oxo-1,4,8-triazaspiro[4,5]dec-1-yl]acetate] | 48

Same assay, conditions: read-out: Uptake 5-HT, % inhibition; Table III; rat, 1 μM

Row | SMILES | inhibition at 1 µM [%]
5 | CC(C)=CCN1C(=O)C(C(C)C)NC12CCN(C(=O)c1c(-c3c(F)cccc3Cl)noc1C)CC2 (stereo not shown) [Example 233, 8-[3-(2-Chloro-6-fluorophenyl)-5-methylisoxazole-4-carbonyl]-3-isopropyl-1-(3-methylbut-2-enyl)-1,4,8-triazaspiro[4,5]decan-2-one] | 30
6 | C#CCN1C(=O)C(CC(C)C)NC12CCN(C(=O)c1ccc(OC(F)(F)F)cc1)CC2 (stereo not shown) [Example 234, 3-Isobutyl-1-prop-2-ynyl-8-(4-trifluoromethoxybenzoyl)-1,4,8-triazaspiro[4,5]decan-2-one] | 45
7 | Cc1cc(C(=O)N2CCC3(CC2)NC(Cc2ccccc2)C(=O)N3C)no1 (stereo not shown) [Example 239, 3-Benzyl-1-methyl-8-(5-methylisoxazole-3-carbonyl)-1,4,8-triazaspiro[4,5]decan-2-one] | 36
8 | CCCCN1C(=O)C(Cc2ccccc2)NC12CCN(C(=O)c1snnc1C)CC2 (stereo not shown) [Example 243, 3-Benzyl-1-butyl-8-(4-methyl[1,2,3]thiadiazole-5-carbonyl)-1,4,8-triazaspiro[4,5]decan-2-one] | 46
9 | C#CCN1C(=O)C(Cc2ccccc2)NC12CCN(C(=O)c1snnc1C)CC2 (stereo not shown) [Example 244, 3-Benzyl-8-(4-methyl[1,2,3]thiadiazole-5-carbonyl)-1-prop-2-ynyl-1,4,8-triazaspiro[4,5]decan-2-one] | 51
10 | C#CCN1C(=O)C(Cc2ccccc2)NC12CCN(C(=O)c1cc(C)on1)CC2 (stereo not shown) [Example 251, 3-Benzyl-8-(5-methylisoxazole-3-carbonyl)-1-prop-2-ynyl-1,4,8-triazaspiro[4,5]decan-2-one] | 50
11 | COC(=O)c1ccc(CN2C(=O)CNC23CCN(C(=O)c2cccnc2Cl)CC3)cc1 [Example 252, Methyl 4-[8-(2-chloropyridin-3-carbonyl)-2-oxo-1,4,8-triazaspiro[4,5]dec-1-ylmethyl]benzoate] | 73
12 | Cc1cc(C(=O)N2CCC3(CC2)NCC(=O)N3Cc2ccccc2F)n(C(C)(C)C)n1 [Example 253, 8-(2-tert-Butyl-5-methyl-2H-pyrazole-3-carbonyl)-1-(2-fluorobenzyl)-1,4,8-triazaspiro[4,5]decan-2-one] | 82
13 | COC(=O)c1ccc(CN2C(=O)CNC23CCN(C(=O)c2cccnc2SC)CC3)cc1 [Example 254, Methyl 4-[8-(2-methylsulfanylpyridin-3-carbonyl)-2-oxo-1,4,8-triazaspiro[4,5]dec-1-ylmethyl]benzoate] | 34
14 | C=CCN1C(=O)C(CCSC)NC12CCN(C(=O)C(=O)OCC)CC2 (stereo not shown) [Example 261, Ethyl 2-[1-allyl-3-(2-methylsulfanylethyl)-2-oxo-1,4,8-triazaspiro[4,5]dec-8-yl]-2-oxo-acetate] | 39
15 | CCOC(=O)CN1C(=O)C(CCSC)NC12CCN(C(=O)CC)CC2 (stereo not shown) [Example 263, Ethyl [3-(2-methylsulfanylethyl)-2-oxo-8-propionyl-1,4,8-triazaspiro[4,5]dec-1-yl]acetate] | 50
16 | COC(=O)c1ccc(CN2C(=O)CNC23CCN(C(=O)C2CCCC2)CC3)cc1 [Example 269, Methyl 4-(8-cyclopentanecarbonyl-2-oxo-1,4,8-triazaspiro[4,5]dec-1-ylmethyl)benzoate] | 40
17 | COc1cc(C(=O)N2CCC3(CC2)NCC(=O)N3Cc2cccc(C#N)c2)cc(OC)c1OC [Example 277, 3-[2-Oxo-8-(3,4,5-trimethoxybenzoyl)-1,4,8-triazaspiro[4,5]dec-1-ylmethyl]benzonitrile] | 43
18 | COCC(=O)N1CCC2(CC1)NC(C(C)C)C(=O)N2Cc1cccc(C#N)c1 (stereo not shown) [Example 282, 3-[3-Isopropyl-8-(2-methoxyacetyl)-2-oxo-1,4,8-triazaspiro[4,5]dec-1-ylmethyl]benzonitrile] | 49
19 | COC(=O)c1ccc(CN2C(=O)CNC23CCN(C(=O)Cc2ccccc2)CC3)cc1 [Example 283, Methyl 4-(2-oxo-8-phenylacetyl-1,4,8-triazaspiro[4,5]dec-1-ylmethyl)benzoate] | 51
20 | COC(=O)c1ccc(CN2C(=O)CNC23CCN(C(=O)C2CCCCC2)CC3)cc1 [Example 286, Methyl 4-(8-cyclohexanecarbonyl-2-oxo-1,4,8-triazaspiro[4,5]dec-1-ylmethyl)benzoate] | 47
21 | N#Cc1cccc(CN2C(=O)CNC23CCN(C(=O)c2ccccc2C(F)(F)F)CC3)c1 [Example 308, 3-[2-Oxo-8-(2-trifluoromethylbenzoyl)-1,4,8-triazaspiro[4,5]dec-1-ylmethyl]benzonitrile] | 59
22 | COc1cccc(C(=O)N2CCC3(CC2)NCC(=O)N3Cc2ccccc2F)c1 [Example 311, 1-(2-Fluorobenzyl)-8-(3-methoxybenzoyl)-1,4,8-triazaspiro[4,5]decan-2-one] | 49
23 | Cn1nc(C(C)(C)C)cc1C(=O)N1CCC2(CC1)NCC(=O)N2Cc1ccccc1F [Example 313, 8-(5-tert-Butyl-2-methyl-2H-pyrazole-3-carbonyl)-1-(2-fluorobenzyl)-1,4,8-triazaspiro[4,5]decan-2-one] | 60
24 | CCOC(=O)CN1C(=O)C(Cc2ccccc2)NC12CCN(C(=O)c1ccccc1F)CC2 (stereo not shown) [Example 315, Ethyl [3-benzyl-8-(2-fluorobenzoyl)-2-oxo-1,4,8-triazaspiro[4,5]dec-1-yl]acetate] | 61
25 | CCOC(=O)CN1C(=O)C(Cc2ccccc2)NC12CCN(C(=O)C1CCC1)CC2 (stereo not shown) [Example 319, Ethyl (3-benzyl-8-cyclobutanecarbonyl-2-oxo-1,4,8-triazaspiro[4,5]dec-1-yl)acetate] | 70
26 | COc1ccc(CC(=O)N2CCC3(CC2)NCC(=O)N3Cc2ccccc2F)cc1 [Example 320, 1-(2-Fluorobenzyl)-8-[2-(4-methoxyphenyl)acetyl]-1,4,8-triazaspiro[4,5]decan-2-one] | 38
27 | C=CCN1C(=O)C(C(C)C)NC12CCN(C(=O)c1ccccc1C)CC2 (stereo not shown) [Example 325, 1-Allyl-3-isopropyl-8-(2-methylbenzoyl)-1,4,8-triazaspiro[4,5]decan-2-one] | 32

Tested on: batrachotoxin (BTX) binding site of the sodium channel
Experiment: Affinity to the batrachotoxin (BTX) binding site of the sodium channel
Conditions: Table II; rat cerebrocortex synaptosomes; test concentration not given

Row | SMILES | BTX inhibition
28 | Cl.O=C(c1ccc(Cl)cc1)N1CCC2(CC1)N[C@@H](Cc1ccccc1)C(=O)N2Cc1ccc(F)cc1 (racemic) [Example 28, 3-(S,R)-benzyl-8-(4-chlorobenzoyl)-1-(4-fluorobenzyl)-1,4,8-triazaspiro[4,5]decan-2-one hydrochloride] | 47
29 | Cl.O=C(C(c1ccccc1)c1ccccc1)N1CCC2(CC1)N[C@@H](Cc1ccccc1)C(=O)N2Cc1ccccc1 [Example 56, 1,3-(S)-dibenzyl-8-diphenylacetyl-1,4,8-triazaspiro[4,5]decan-2-one hydrochloride] | 67
30 | COc1cccc(C(=O)N2CCC3(CC2)N[C@@H](Cc2ccccc2)C(=O)N3Cc2ccccc2)c1.Cl [Example 61, 1,3-(S)-dibenzyl-8-(3-methoxybenzoyl)-1,4,8-triazaspiro[4,5]decan-2-one hydrochloride] | 41

Same assay, conditions: Table III; rat cerebrocortex synaptosomes; test concentration not given

Row | SMILES | BTX inhibition
31 | O=C(c1ccc(-c2ccccc2)cc1)N1CCC2(CC1)NCC(=O)N2Cc1ccccc1 [Example 72, 1-Benzyl-8-(biphenyl-4-carbonyl)-1,4,8-triazaspiro[4,5]decan-2-one] | 39
32 | Cc1onc(-c2c(F)cccc2Cl)c1C(=O)N1CCC2(CC1)NC(C(C)C)C(=O)N2CCOc1ccccc1 (stereo not shown) [Example 131, 8-[3-(2-Chloro-6-fluorophenyl)-5-methylisoxazole-4-carbonyl]-3-isopropyl-1-(2-phenoxyethyl)-1,4,8-triazaspiro[4,5]decan-2-one] | 37
33 | Cc1cccc(C(=O)N2CCC3(CC2)NC(CC(C)C)C(=O)N3Cc2ccccc2F)c1 (stereo not shown) [Example 132, 1-(2-Fluorobenzyl)-3-isobutyl-8-(3-methylbenzoyl)-1,4,8-triazaspiro[4,5]decan-2-one] | 54
34 | CCCCC(CC)C(=O)N1CCC2(CC1)NCC(=O)N2CCOc1ccccc1 (stereo not shown) [Example 133, 8-(2-Ethylhexanoyl)-1-(2-phenoxyethyl)-1,4,8-triazaspiro[4,5]decan-2-one] | 35
35 | CCOc1ccc(C(=O)N2CCC3(CC2)NC(Cc2ccccc2)C(=O)N3C)cc1 (stereo not shown) [Example 135, 3-Benzyl-8-(4-ethoxybenzoyl)-1-methyl-1,4,8-triazaspiro[4,5]decan-2-one] | 31
36 | CSCCC1NC2(CCN(C(=O)c3cccc(N(C)C)c3)CC2)N(Cc2cc(C)cc(C)c2)C1=O (stereo not shown) [Example 137, 8-(3-Dimethylaminobenzoyl)-1-(3,5-dimethylbenzyl)-3-(2-methylsulfanylethyl)-1,4,8-triazaspiro[4,5]decan-2-one] | 59
37 | O=C(c1ccc(F)c(F)c1)N1CCC2(CC1)NCC(=O)N2CCOc1ccccc1 [Example 142, 8-(3,4-Difluorobenzoyl)-1-(2-phenoxyethyl)-1,4,8-triazaspiro[4,5]decan-2-one] | 32
